Measured values from patent publication US20260345834A1, “NIR-LIGHT ACTIVATABLE NANOGEL DELIVERY SYSTEM” (THE BOARD OF TRUSTEES OF THE UNIVERSITY OF ILLINOIS, priority 2022, published 2026).

Key:
Assay type in all cases: physicochemical
[1] = Photobleaching under 780 nm LED irradiation (NIR absorbance)
Experimental: FIG. 2. […] Time points=0, 15, 30 mins. Samples were irradiated with a LED light source at 780 m, (300 mW power output, 47.3 μW/mm^2 maximum irradiance).
FIG. 3. Absorption measurements of a 25 μM solution of a) Cy7-Cl and b) Cy780-Acryl when irradiated with a 780 nm LED light. Time points=0, 15, 30 mins. Samples were irradiated with a LED light source at 780 m, (300 mW power output, 47.3 μW/mm^2 maximum irradiance).
FIG. 4. Absorption measurements of a NIR-nanogel sample without dissolved oxygen when irradiated with a 780 nm LED light. Time points=0, 15, 30, 45, 60, 75, 90 mins. Samples were irradiated with a LED light source at 780 m, (300 mW power output, 47.3 μW/mm^2 maximum irradiance).
Time points=0, 15, 30, 45, 60, 90, 120, 150, 180 mins. b) Diameter of NIR-nanogels with and without NIR light irradiation measured via dynamic light scattering (left) and scanning electron microscopy (right). […] (n=300 for SEM) Scale bar represents 500 nm. e) Normalized absorbance of nanogels exposed to biologically relevant reactive species. f) Normalized absorbance of nanogels suspended in Britton-Robinson buffer (pH 4.2 to 12.0). […]
With the various components in hand, we turned our attention to testing whether the amide moiety would impact the photophysical properties of the cyanine core. First, we analyzed the absorption spectrum and measured the extinction coefficient of Cy780-Acryl. […]

[2] = Absorption spectrum and extinction coefficient in DMSO
From the text: With the various components in hand, we turned our attention to testing whether the amide moiety would impact the photophysical properties of the cyanine core. First, we analyzed the absorption spectrum and measured the extinction coefficient of Cy780-Acryl. Compared to the Cy7-Cl reference in DMSO, the λmax (831 nm cf. 793 nm) and extinction coefficients (1.11×10^5 M^−1cm^−1 cf. 1.23×10^5 M^−1cm^−1) were similar. Next, we evaluated the photostability of the crosslinker. When Cy780-Acryl (as well as Cy780-Acetamido) was irradiated with a LED light source at 780 nm (300 mW power output, 47.3 μW/mm^2 maximum irradiance), we found complete degradation of the molecule after only 25 minutes based on the disappearance of the NIR absorbance band (FIG. 2). […] Of note, when dissolved oxygen was removed prior to the initiation of photobleaching, we found the change in absorbance to be minimal, supporting the proposed dioxetane mechanism (FIG. 4). Indeed, the anticipated carbonyl fragmentation products were detected via LC-MS when samples were irradiated in the presence of oxygen (FIG. 5).
^1H and ^13C NMR spectra were acquired on a Varian 500 or Carver B500 spectrometer. […] Spectra were visualized and analyzed using MestReNova (version 14.2) and referenced to trace non-deuterated solvent. […]

[3] = Passive release of encapsulated cargo via dialysis; details: drug-loaded NIR-nanogel, dialysis against MilliQ/DI water; for passive leeching of cargo (concentration loss): three hours
Experimental: FIG. 10A-D. Passive release of encapsulated a) cisplatin b) gefitinib c) GW9662 and d) Paclitaxel via dialysis for 0, 1, 2, and 4 hours against DI water.
After extensive screening, we obtained an optimized procedure that yielded reliable encapsulation results for each drug. We discovered that slow addition (versus bolus addition) of the drug to NIR-nanogel samples was essential to maintain a homogeneous suspension of the particles in solution. Further, the inclusion of at least 10% ethanol as a solubilizing co-solvent was necessary for drug encapsulation. […] After removal of non-encapsulated drug, we established a method to assess passive leeching of the contents by dialyzing the drug-loaded sample against MilliQ water. Small aliquots were removed at various time points and compared to the initial cargo concentration. […] In general, the extent of passive cargo loss was determined by placing a photobleached sample of each drug-loaded NIR-nanogel in 3 kDa MWCO dialysis tubing for dialysis against DI water. Aliquots were taken to determine the absorbance at various time points for comparison against the corresponding calibration curve.

passive release of cargo (result in words) [3] | Structure (SMILES) | passive leeching of cargo (concentration loss) [3] | further results
– | C=CC(=O)Nc1ccc2c(c1)C(C)(C)C(/C=C/C1=C(Cl)C(=C/C=C3/N(CC)c4ccc(NC(=O)C=C)cc4C3(C)C)/CCC1)=[N+]2CC [Cy780-Acryl] | – | change in absorbance on irradiation without dissolved oxygen ([1]; 780 nm LED, dissolved oxygen removed prior to photobleaching): minimal; time to complete degradation (disappearance of the NIR absorbance band) ([1]; LED 780 nm, 300 mW power output, 47.3 μW/mm^2 maximum irradiance): 25 min; extinction coefficient [2]: 111000 M⁻¹ cm⁻¹; λmax [2]: 831 nm
no passive release | O=C(Nc1ccccc1)c1cc([N+](=O)[O-])ccc1Cl [GW9662] | – | –
– | N.N.[Cl][Pt][Cl] [cisplatin] | ~ 50% | –
– | COc1cc2ncnc(Nc3ccc(F)c(Cl)c3)c2cc1OCCCN1CCOCC1 [gefitinib] | ~ 6% | –
minimal leeching | CC(=O)O[C@H]1C(=O)[C@@]2(C)[C@H]([C@H](OC(=O)c3ccccc3)[C@]3(O)C[C@H](OC(=O)[C@H](O)[C@@H](NC(=O)c4ccccc4)c4ccccc4)C(C)=C1C3(C)C)[C@]1(OC(C)=O)CO[C@@H]1C[C@@H]2O [paclitaxel] | – | –
